Laboratory results reported in patent US20200404916A1, “METHOD OF REDUCING CROP DAMAGE” (BAYER AKTIENGESELLSCHAFT, priority 2018, published 2020).

What was measured:
winter wheat, TRZAW [1] = experiment: Post-emergence greenhouse pot test, visual scoring of crop damage on winter wheat; type: in vivo
From the text: Post-emergence application was done when the plants had reached growth stage BBCH11 (BBCH is the international coding system for the growth stage of crops and weeds).
The safener (mefenpyr-diethyl) was formulated as wettable powder (WP).
The compounds were sprayed onto the green parts of the plants as an aqueous suspension at an equivalent water application rate of 300 l/ha.
(§1) The combination of herbicide and safener was applied as a tank mix.
(§2) After application, the test plants were kept in the greenhouse under good growth conditions.
(§3) Values in the table below are mean values from at least 3 replicates.
(§4) For the safener seed treatment, sufficient seeds were weighed into screw top glass bottles approximately twice the volume of the seeds.
(§5) The safener (mefenpyr-diethyl, formulated as suspension concentrate (SC)) was weighed out so that the required rates (g a.i./kg seed) would be obtained, dissolved in water (1 ml water per 10 g of seeds), and added to the seeds to produce a slurry.
(§6) The bottles were capped and then placed in an overhead shaker (set at medium speed for up to 1 hour) so that the seeds were evenly coated with the slurry. The bottles were uncapped and the seeds were sown as described above.
(§7) For the seed treatment process, the blind formulation (the SC formulation without the safener mefenpyr-diethyl) was used as seed treatment as described above.
Post-emergence application of the herbicide was done when the plants had reached growth stage BBCH11.
Post-emergence application was done when the plants had reached growth stage BBCH11.

winter wheat, TRZAW [2] = experiment: Pre-emergence greenhouse pot test, visual scoring of crop damage on winter wheat; type: in vivo
Description: as §4, §5, §6, §7
The compounds were sprayed to the soil surface as an aqueous suspension at an equivalent water application rate of 300 l/ha.
as §1, §2, §3

Compound | % crop damage (winter wheat, TRZAW [1]; herbicide 200 g/ha post-emergence (BBCH11), no safener, 14 days after application, mean of at least 3 replicates) [%] | % crop damage (winter wheat, TRZAW [2]; herbicide 200 g/ha pre-emergence, no safener, 14 days after application, mean of at least 3 replicates) [%] | % crop damage (winter wheat, TRZAW [1]; safener 200 g/ha in tank mix alone, post-emergence (BBCH11), no herbicide, 14 days after application) [%] | % crop damage (winter wheat, TRZAW [1]; safener seed treatment 0.5 g/kg alone, no herbicide, post-emergence test series) [%] | % crop damage (winter wheat, TRZAW [2]; safener 200 g/ha in tank mix alone, pre-emergence, no herbicide, 14 days after application) [%] | % crop damage (winter wheat, TRZAW [2]; safener seed treatment 0.5 g/kg alone, no herbicide, pre-emergence test series) [%]
Diflufenican [Herbicide post-em.] | 20 | 25 |  |  |  | 
CCOC(=O)C1=NN(c2ccc(Cl)cc2Cl)C(C)(C(=O)OCC)C1 (stereo not drawn) [Safener in tank mix, ethyl 1-(2,4-dichlorophenyl)-5-(ethoxycarbonyl)-5-methyl-2-pyrazoline-3-carboxylate] |  |  | 5 | 0 | 5 | 5
